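Method: 48-hour compound exposure of cells in 96-well plates, five concentrations, linear interpolation of endpoints. Definition used: TGI = concentration required for complete inhibition of growth.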
Columns and labels:
Assay in all cases: inhibition of tumour cell growth, NCI panel, 48 h
786-0 renal = test system: 786-0 renal
A498 renal = test system: A498 renal
A549 NSCLC = test system: A549 NSCLC
ACHN renal = test system: ACHN renal
CAKI-1 renal = test system: CAKI-1 renal
CCRF-CEM leukemia = test system: CCRF-CEM leukemia
COLO 205 colon = test system: COLO 205 colon
DU-145 prostate = test system: DU-145 prostate
EKVX NSCLC = test system: EKVX NSCLC
HCC-2998 colon = test system: HCC-2998 colon
HCT-116 colon = test system: HCT-116 colon
HCT-15 colon = test system: HCT-15 colon
HOP-62 NSCLC = test system: HOP-62 NSCLC
HOP-92 NSCLC = test system: HOP-92 NSCLC
HT29 colon = test system: HT29 colon
IGROV1 ovarian = test system: IGROV1 ovarian
K-562 leukemia = test system: K-562 leukemia
KM12 colon = test system: KM12 colon
LOX IMVI melanoma = test system: LOX IMVI melanoma
M14 melanoma = test system: M14 melanoma
MALME-3M melanoma = test system: MALME-3M melanoma
MCF7 breast = test system: MCF7 breast
MDA-MB-231 breast = test system: MDA-MB-231 breast
MDA-MB-435 = test system: MDA-MB-435
MDA-N = test system: MDA-N
MOLT-4 leukemia = test system: MOLT-4 leukemia
NCI-H226 lung = test system: NCI-H226 lung
NCI-H23 lung = test system: NCI-H23 lung
NCI-H460 lung = test system: NCI-H460 lung
NCI-H522 lung = test system: NCI-H522 lung
NCI/ADR-RES ovarian = test system: NCI/ADR-RES ovarian
OVCAR-3 ovarian = test system: OVCAR-3 ovarian
OVCAR-4 ovarian = test system: OVCAR-4 ovarian
OVCAR-5 ovarian = test system: OVCAR-5 ovarian
OVCAR-8 ovarian = test system: OVCAR-8 ovarian
PC-3 prostate = test system: PC-3 prostate
RXF 393 renal = test system: RXF 393 renal
SF-268 CNS = test system: SF-268 CNS
SF-295 CNS = test system: SF-295 CNS
SF-539 CNS = test system: SF-539 CNS
SK-MEL-2 melanoma = test system: SK-MEL-2 melanoma
SK-MEL-28 melanoma = test system: SK-MEL-28 melanoma
SK-MEL-5 melanoma = test system: SK-MEL-5 melanoma
SK-OV-3 ovarian = test system: SK-OV-3 ovarian
SN12C renal = test system: SN12C renal
SNB-19 CNS = test system: SNB-19 CNS
SNB-75 CNS = test system: SNB-75 CNS
SR leukemia = test system: SR leukemia
SW-620 colon = test system: SW-620 colon
T-47D breast = test system: T-47D breast
TK-10 renal = test system: TK-10 renal
U251 CNS = test system: U251 CNS
UACC-257 melanoma = test system: UACC-257 melanoma
UACC-62 melanoma = test system: UACC-62 melanoma
UO-31 renal = test system: UO-31 renal

Measured: TGI

C=C(C)/C=C/C(O)[C@](C)(O)[C@H]1[C@H](O)C[C@@]2(C)[C@@H]3CCc4c(cc(OC5OC(CO)C(O)C(O)C5O)c(O)c4C)C3(C)C(=O)C[C@]12C (stereo not given in full)
> 100 µM: all assays above
